Several values for one entry are separate records, joined by “and”; a condition that tells them apart may be missing. Equal values may be shown once.
Key:
H-460 [1] = test: MTT assay at 72 hr (24 hr drug exposure, wash, 48 hr); assay type: cell-based
Procedure: (§1) Exposition of 24hr to drug, washed, and incubated for another 48hr (total of 72hr assay)

CEM/dCK- [2] = test: MTT or WST-1 assay at 72 hr (24 hr drug exposure, wash, 48 hr); assay type: cell-based
Procedure: as §1

H-460 [3] = test: 3H-TdR incorporation at 72 hr (24 hr drug exposure, wash, 48 hr); assay type: cell-based, Human; settings: Homo sapiens, NCI-H460, read-out: IC50 in μM (3H-TdR incorporation at 72 hr) H-460 24 h, H-460 Human Lung Carcinoma, 72 hr assay
Procedure: (§2) Exposition of 24 hr to drug, wash, incubated for another 48 hr (total of 72 hr assay)
(§3) (3H-Thymidine Incorporation Assay)

MCF-7 [4] = test: as above; assay type: cell-based, Human; settings: Homo sapiens, MCF7, read-out: IC50 in μM (3H-TdR incorporation at 72 hr) MCF-7 24 h, MCF-7 Human Breast Carcinoma, 72 hr assay
Procedure: as §2, §3

SF-268 [5] = test: as above; assay type: cell-based, Human; settings: Homo sapiens, SF-268, read-out: IC50 in μM (3H-TdR incorporation at 72 hr) SF-268 24 h, SF-268 Human Central Nervous System Tumor; 24 h drug exposure, 72 hr assay
Procedure: as §2, §3

CCRF-CEM [6] = test: as above; assay type: cell-based; settings: Homo sapiens, CCRF-CEM, read-out: IC50 in μM (3H-TdR incorporation at 72 hr) CCRF-CEM 24 h, CCRF-CEM T-cell Leukemia, 72 hr assay
Procedure: as §2, §3

CEM/dCK- [7] = test: as above; assay type: cell-based; settings: for IC50: Homo sapiens, CCRF-CEM, read-out: IC50 in μM (3H-TdR incorporation at 72 hr) CEM/dCK- 24 h, CCRF-CEM deoxycytidine kinase-deficient, 24 h drug exposure, 72 hr assay; for Factor* (Resistance Factor = Ratio of dCK- on Wild-type CCRF-CEM): ratio of IC50 CEM/dCK- to IC50 CCRF-CEM
Procedure: as §2, §3

MCF-7 [8] = test: MTT assay at 72 hr (24 hr drug exposure, wash, 48 hr); assay type: cell-based
Procedure: as §1

SF-268 [9] = test: as above; assay type: cell-based; settings: Homo sapiens, SF-268, read-out: IC50 SF-268 24 h, MTT at 72 hr, 24 h exposure, single experiment
Procedure: as §1

CCRF-CEM [10] = test: MTT or WST-1 assay at 72 hr (24 hr drug exposure, wash, 48 hr); assay type: cell-based
Procedure: as §1

H-460 [11] = test: 3H-TdR (3H-thymidine) incorporation assay at 72 hr; assay type: cell-based, Human; settings: 3H-TdR incorporation at 72 hr
MCF-7 [12] = test: 3H-TdR (3H-thymidine) incorporation assay at 72 hr; assay type: cell-based, Human; settings: 3H-TdR incorporation at 72 hr
SF-268 [13] = test: 3H-TdR (3H-thymidine) incorporation assay at 72 hr; assay type: cell-based, Human; settings: 3H-TdR incorporation at 72 hr
CEM/dCK- [14] = test: 3H-TdR (3H-thymidine) incorporation assay at 72 hr; assay type: cell-based; settings: Homo sapiens, CCRF-CEM, read-out: IC50 CEM/dCK- 24 h, 24 h drug exposure, wash, another 48 hr; deoxycytidine kinase-deficient CCRF-CEM
Procedure: Table of IC50 Values (μM) for Controls
as §2, §3

[15] = Homo sapiens, NCI-H460, read-out: IC50 H-460 24 h, MTT at 72 hr, 24 h exposure, single experiment
[16] = read-out: IC50 H-460 24 h, MTT at 72 hr, 24 h exposure, single experiment
[17] = read-out: IC50 CEM/dCK- 24 h, MMT or WST-1 at 72 hr, 24 h exposure, single experiment
[18] = Homo sapiens, MCF7, read-out: IC50 MCF-7 24 h, MTT at 72 hr, 24 h exposure, single experiment
[19] = Homo sapiens, CCRF-CEM, read-out: IC50 CCRF-CEM 24 h, MMT or WST-1 at 72 hr, 24 h exposure, single experiment
[20] = read-out: IC50 CCRF-CEM 24 h, MMT or WST-1 at 72 hr, 24 h exposure, single experiment
[21] = CEM/dCK- versus CCRF-CEM, single experiment

IC50 (H-460 [3]) [µM]	IC50 (MCF-7 [4]) [µM]	IC50 (SF-268 [5]) [µM]	IC50 (CCRF-CEM [6]) [µM]	IC50 (CEM/dCK- [7]) [µM]	IC50 (MCF-7 [8]; [18]) [µM]	IC50 (CCRF-CEM [10]; [19]) [µM]	IC50 (CCRF-CEM [10]; [20]) [µM]	SMILES	IC50 (H-460 [1]; [15]) [µM]	IC50 (H-460 [1]; [16])	IC50 (CEM/dCK- [2]; [17]) [µM]	Factor* (Resistance Factor = Ratio of dCK- on Wild-type CCRF-CEM) (CEM/dCK- [7])	IC50 (SF-268 [9]) [µM]	Resistance Factor* (CEM/dCK- [2]; [21])	further results
9.7	5	1.6	4.2	> 100	36	4.1	5.4	CC(C)C[C@H](N)C(=O)Nc1ccn([C@@H]2CO[C@H](CO)O2)c(=O)n1 [Compound 257, 2-AMINO-4-METHYL- PENTANOIC ACID [1-(2- HYDROXYMETHYL- [1,3]DIOXOLAN-4-YL)-2- OXO-1,2-DIHYDRO- PYRIMIDIN-4-YL]-AMIDE]	–	–	> 100	>24	> 100	–	IC50 (MCF-7 [8]; read-out: IC50 MCF-7 24 h, MTT at 72 hr, 24 h exposure, single experiment): 21 µM
–	–	–	–	–	–	19	14	CC(C)C[C@H](NC(=O)[C@H](C)NC(=O)OC(C)(C)C)C(=O)Nc1ccn([C@@H]2CO[C@H](CO)O2)c(=O)n1 [Compound 263, (1-{1-[1-(2- HYDROXYMETHYL- [1,3]DIOXOLAN-4-YL)-2- OXO-1,2-DIHYDRO- PYRIMIDIN-4- YLCARBANOYL]-3-METHYL- BUTYLCARBAMOYL}-ETHYL)- CARBAMIC ACID TERT- BUTYL ESTER]	66	> 100 µM	> 100	–	> 100	–	–
–	–	–	–	–	0.32	0.48	–	CC(C)CCCCC(=O)Nc1ccn([C@@H]2CO[C@H](CO)O2)c(=O)n1 [Compound 277, 6-METHYL-HEPTANOIC ACID [1-(2-HYDROXYMETHYL- [1,3]DIOXOLAN-4-YL)-2- OXO-1,2-DIHYDRO- PYRIMIDIN-4-YL]-AMIDE]	2	–	> 100	–	7.3	>208	IC50 (H-460 [11]; Homo sapiens, NCI-H460, read-out: IC50 H-460 24 h, 24 h drug exposure, wash, another 48 hr): 0.2 µM; IC50 (H-460 [11]; read-out: IC50 H-460 24 h, 24 h drug exposure, wash, another 48 hr): 0.29 µM; IC50 (MCF-7 [12]; Homo sapiens, MCF7, read-out: IC50 MCF-7 24 h, 24 h drug exposure, wash, another 48 hr): 0.013 µM; IC50 (MCF-7 [12]; read-out: IC50 MCF-7 24 h, 24 h drug exposure, wash, another 48 hr): 0.016 µM; IC50 (SF-268 [13]; Homo sapiens, SF-268, read-out: IC50 SF-268 24 h, 24 h drug exposure, wash, another 48 hr): 0.21 µM; IC50 (SF-268 [13]; read-out: IC50 SF-268 24 h, 24 h drug exposure, wash, another 48 hr): 0.19 µM; IC50 (CEM/dCK- [14]): > 100 µM

Continued, compound first:

SMILES	IC50 (H-460 [3]) [µM]	IC50 (MCF-7 [4]) [µM]	IC50 (SF-268 [5]) [µM]	IC50 (CCRF-CEM [6]) [µM]	IC50 (CEM/dCK- [7]) [µM]	IC50 (MCF-7 [8]; [18]) [µM]	IC50 (CCRF-CEM [10]; [19]) [µM]	IC50 (CCRF-CEM [10]; [20]) [µM]	IC50 (H-460 [1]; [15]) [µM]	IC50 (H-460 [1]; [16])	IC50 (CEM/dCK- [2]; [17]) [µM]	Factor* (Resistance Factor = Ratio of dCK- on Wild-type CCRF-CEM) (CEM/dCK- [7])	IC50 (SF-268 [9]) [µM]	Resistance Factor* (CEM/dCK- [2]; [21])	further results
CC(CCCCCCc1ccccc1)C(=O)Nc1ccn([C@@H]2CO[C@H](CO)O2)c(=O)n1 (some centres unmarked) [Compound 247, 2-Methyl-8-phenyl-octanoic acid [1-(2-hydroxymethyl-[1,3]dioxolan-4-yl)-2-oxo-1,2-dihydro-pyrimidin-4-yl]-amide]	0.13	0.00078	0.13	0.1	15	–	–	–	0.39	0.54 µM and 0.46 µM	61	150	–	–	IC50 (CEM/dCK- [2]; read-out: IC50 CEM/dCK- 24 h; MMT or WST-1 at 72 hr, 24 h exposure, single experiment): 49 µM
CC(C)C[C@H](NC(=O)[C@H](C)N)C(=O)Nc1ccn([C@@H]2CO[C@H](CO)O2)c(=O)n1.O=C(O)C(F)(F)F.O=C(O)C(F)(F)F [Compound 265, 2-(2-AMINO- PROPIONYLAMINO)-4- METHYL-PENTANOIC ACID [1-(2-HYDROXYMETHYL- [1,3]DIOXOLAN-4-YL)-2- OXO-1,2-DIHYDRO- PYRIMIDIN-4-YL]-AMIDE, BIS TRIFLUOROACETIC ACID SALT]	–	–	–	–	–	77	30	–	> 100	–	> 100	–	> 100	>3	–
CC(C)C[C@H](NC(=O)OCc1ccccc1)C(=O)N[C@@H](C)C(=O)N[C@@H](CC(C)C)C(=O)Nc1ccn([C@@H]2CO[C@H](CO)O2)c(=O)n1 [Compound 267, [1-(1-{1-[1-(2- HYDROXYMETHYL- [1,3]DIOXOLAN-4-YL)-2- OXO-1,2-DIHYDRO- PYRIMIDIN-4- YLCARBAMOYL]-3-METHYL- BUTYLCARBAMOYL}- ETHYLCARBAMOYL)-3- METHYL-BUTYL]-CARBAMIC ACID BENZYL ESTER]	–	–	–	–	–	34	2.9	–	93	–	> 10	–	> 10	>3	–
